Measured values reported in patent US20190142748A1 (priority 2016, published 2019).

What was measured:
[1] = ten patients; cited from earlier work
[2] = oral; cited from earlier work
[3] = target: plasma proteins, specifically albumin (Homo sapiens, UniProt P02768); conditions: in vitro; cited from earlier work
[4] = cited from earlier work
[5] = Chlorambucil stability in aqueous solution (LCMS area percent); type: physicochemical; conditions: chlorambucil in water (5% methanol)

Chain of plasma proteins, specifically albumin (P02768 25-609): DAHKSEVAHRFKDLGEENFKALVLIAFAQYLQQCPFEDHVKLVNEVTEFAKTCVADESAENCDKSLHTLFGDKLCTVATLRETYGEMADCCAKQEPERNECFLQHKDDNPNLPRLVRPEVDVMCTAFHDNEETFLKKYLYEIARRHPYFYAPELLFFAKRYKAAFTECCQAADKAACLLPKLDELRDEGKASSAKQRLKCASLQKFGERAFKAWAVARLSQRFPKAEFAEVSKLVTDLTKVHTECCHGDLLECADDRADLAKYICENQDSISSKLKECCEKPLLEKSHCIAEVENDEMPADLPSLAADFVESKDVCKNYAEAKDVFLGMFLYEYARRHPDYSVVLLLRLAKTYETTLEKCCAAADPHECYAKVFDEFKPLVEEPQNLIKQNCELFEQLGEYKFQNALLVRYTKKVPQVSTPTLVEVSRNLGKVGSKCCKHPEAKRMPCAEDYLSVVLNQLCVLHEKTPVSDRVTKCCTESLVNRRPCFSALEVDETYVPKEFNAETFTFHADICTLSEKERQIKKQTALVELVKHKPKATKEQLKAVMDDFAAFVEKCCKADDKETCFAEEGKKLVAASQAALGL

O=C(O)CCCc1ccc(N(CCCl)CCCl)cc1 [Chlorambucil]
increase of median Tmax by food intake [1]: 2 fold | reduction of dose-adjusted AUC by food intake [1]: 20% | reduction of dose-adjusted Cmax by food intake [1]: 55% | absorbed from the gastrointestinal tract [2]: > 70% | bound to plasma proteins [3]: 99% | solubility in acetone and in alcohol ([4]; acetone, alcohol): freely soluble | solubility in water ([4]; water): practically insoluble | Chlorambucil (Area %) ([5]; t 0 h): 98.3 Area % | Chlorambucil (Area %) ([5]; t 1 h): 85.3 Area % | Chlorambucil (Area %) ([5]; t 2 h): 74.8 Area % | Chlorambucil (Area %) ([5]; t 3 h): 64.4 Area % | Chlorambucil (Area %) ([5]; t 4 h): 58.9 Area % | Chlorambucil (Area %) ([5]; t 5 h): 53.1 Area %
